According to article PMC11435625, “In Vitro Hepatic Clearance Evaluations of Per- and Polyfluoroalkyl Substances (PFAS) across Multiple Structural Categories” (Toxics, 2024):
Each block holds one compound with its values, some of them ahead of it.

Experiments:
[1] = system: pooled primary human hepatocyte suspensions; experiment: Hepatic clearance assay (substrate depletion, LC-MS); details: in µL/min/10^6 cells; for CLint for HTTK: CLint value carried into HTTK/IVIVE; for in vitro CLint exp assay / Unadj Clint: pooled primary human hepatocyte suspensions; for Unadj Clint: unadjusted hepatic intrinsic clearance, Table S4
Description: The rate of hepatic clearance was determined as previously described for a set of PFAS [11]. Analysis was conducted across two laboratories at the Division of Translational Toxicology (DTT) at the National Institute of Environmental Health Sciences (NIEHS) and the Center for Computational Toxicology and Exposure at the USEPA. The PFAS analyzed in each lab can be found in the Supplementary Materials.
The hepatic clearance assay was performed at both the DTT and EPA laboratories as described below. The pooled human hepatocyte suspensions used in this work were purchased commercially and meet the ethical and scientific standards described in the Human Ethics Rule (40 CFR 26). The suspensions were prepared from hepatocytes obtained from de-identified donors by a commercial vendor.
PFAS stock solutions prepared in DMSO were added to prewarmed William’s E medium to make a 2X working stock solution (2 µM). […] The working stock solutions were then transferred to a 96-well polypropylene plate and placed in an incubator at 37 °C with 5% carbon dioxide prior to adding cells. Cryopreserved pooled primary human hepatocyte suspensions (50-donor pool, mixed gender; BioIVT; Westbury, NY, USA) were thawed and transferred to vials containing hepatocyte thawing medium. After centrifuging for 5–10 min at 100× g, thawing medium was removed, being careful not to disturb the cell pellet. The primary human hepatocytes were then resuspended in pre-warmed complete Williams E medium to achieve a cell density of ~1.0 × 10^6 viable cells/mL as determined by Trypan Blue exclusion. Cells were then added to the 96-well incubation plates containing PFAS to achieve a final density of ~0.5 × 10^6 viable cells/mL and a 1 μM assay concentration (Ctest), then placed in incubator on a shaker at 300 rpm. Triplicate samples were removed from the incubator at time points ranging from 0 to 240 min and quenched with a total crash in 2–3 volumes of ice-cold acetonitrile. Samples were spun at 4000× g for 20 min, and supernatants were transferred to new tubes and stored at <−70 °C until analysis. Media-only (no cell) and/or heat-inactivated hepatocytes were included as negative controls for each chemical to evaluate and estimate chemical loss due to nonmetabolic processes (e.g., hydrolysis). Phenacetin was included in all runs as an assay reference compound; EPA also included propranolol as an additional reference compound.
Assay samples were diluted in mobile phase and analyzed using a Thermo Vanquish UPLC system with a Thermo Hypersil Gold aQ C18 column (100 × 2.1 mm, 1.9 […], Thermo Fisher Scientific Inc.) coupled to a Q Exactive Plus mass spectrometer. Gradient elution was used in the chromatographic separations using water with 20 mM ammonium acetate (mobile phase A) and methanol (mobile phase B), with the following gradient program: 0.5–7 min, 30%–90% B; 7–8 min, 90% B; 8–9 min, 90%–30% B; and 9–10 min, 30% B. The first minute of each injection was diverted to waste to avoid introduction of excessive salts from incubation medium. Analysis was detected in negative ion mode. Samples were quantified against an external, matrix-matched calibration curve. Additional methodologic information is available in Table S2.
To perform SPE, a positive-pressure manifold was employed along with Oasis WAX µElution plates and Oasis HLB 30 mg plates (Waters, Milford, MA, USA) for PFAS and positive-control extraction, respectively. […] The sorbent was then washed with 1% formic acid and water. Samples were eluted in 2% ammonia in methanol for analysis. Similarly, HLB plates were conditioned with methanol and water before sample was loaded onto the sorbent. The wells were then washed with 5% methanol in water and water before elution in methanol. For samples not undergoing SPE, the supernatant of the crashed assay sample was diluted in mobile phase prior to analysis. The first 1.5 min of the run was diverted to waste to prevent salt contamination.

[2] = IVIVE: steady-state concentration (Css), generic HTTK model; design: species or system human; details: for Css (mg/L) / Css (uM): Assuming 1 mg/kg/day dose rate, BW 70 kg; for CLhep: QL 1500000 uL/min; for Fub: fub=fup/(B:P), Fub set to 1 if needed; for CLint: scaled to whole liver: HPGL 110 mill cells/g, Vl 1596 g
Description: IVIVE was performed as previously described to calculate human steady-state concentrations (Css). Briefly, experimental plasma protein binding data presented elsewhere were transformed to fraction unbound in blood using blood-to-plasma partitioning values. Experimental Clint values generated here are used in conjunction with relevant liver scalars to scale up to estimate whole liver clearance. […] Once Css values were established, these were used with the PFAS-specific in vitro POD data to calculate the administered equivalent doses (AEDs) using reverse dosimetry. […] The fifth-percentile AC50 value was used to define the in vitro POD. All relevant inputs, scalars, and calculations are provided in Supplementary Information, as indicated in the results.

plasma protein = details: fraction unbound in plasma, input for IVIVE calculations; cited from earlier work
[3] = system: pooled primary human hepatocyte suspensions; experiment: Bayesian (MCMC, invitroTKstats) analysis of hepatic clearance data; details: for Clint.1.Med: Level-4 Bayesian estimate, posterior median, Clint.1 series (Clint.10 all NA)
Description: Markov Chain Monte Carlo was employed in a Bayesian analysis to estimate uncertainty of the hepatic clearance point measures as previously described, but with some modifications [10]. Briefly, after organizing PFAS-level data into a single file, the relationship between the relevant measurement process parameters was described in a graphic model in JAGS language [13] interfaced through R. For hepatic clearance data, the model describes the PFAS-specific mass spectrometric response factor between analyte peak ratio (to internal standard) and chemical concentration. […] The assumed prior for whether the chemical degraded abiotically in vitro followed a Bernoulli distribution with a 5% chance of abiotic degradation. Separate biotic and abiotic components for chemical elimination were estimated, each with a slope following an assumed uniform prior distribution bounded between the zero and the -log (limit of quantitation/Ctest). In scenarios where an external calibration without internal standard was used, the response factor was calculated using the analyte peak alone, introducing additional uncertainty due to the inability to normalize for recovery issues. The model was analyzed jointly by JAGS using five Markov chains. Convergence was identified by requiring the five chains to be consistent, as indicated by the potential scale reduction factor [14] being less than 1.1. The analysis was performed using EPA-developed R package invitroTKstats, available upon request.

Compound: O=C(O)C(F)(F)C(F)(F)C(F)(F)C(F)(F)C(F)(F)C(F)(F)C(F)(F)C(F)(F)C(F)(F)C(F)F
- CLint for HTTK [1]: 0
- in vitro CLint exp assay [1]: 0
- Css (mg/L) [2]: 160.90 mg/L
- Css (uM) [2]: 294.69 µM
- CLhep [2]: 0.000 L/h
- Fub [2]: 0.002727
- CLint [2]: 0 µL/min
- Mean fu (plasma protein): 0.0015
- Clint.1.Med [3]: 0

Compound: O=S(=O)(OCC(F)(F)F)C(F)(F)C(F)(F)C(F)(F)C(F)(F)F
- Clint.1.Med [3]: 0

Compound: O=S(=O)(O)CCC(F)(F)C(F)(F)C(F)(F)C(F)(F)F
- CLint for HTTK [1]: 4.28
- in vitro CLint exp assay [1]: 4.28
- Css (mg/L) [2]: 6.27 mg/L
- Css (uM) [2]: 19.12 µM
- CLhep [2]: 0.408 L/h
- Fub [2]: 0.009091
- CLint [2]: 751397 µL/min
- Mean fu (plasma protein): 0.005
- Clint.1.Med [3]: 0

Compound: O=S(=O)(O)CCC(F)(F)C(F)(F)C(F)(F)C(F)(F)C(F)(F)C(F)(F)C(F)(F)C(F)(F)F
- CLint for HTTK [1]: 1.53
- in vitro CLint exp assay [1]: 1.53
- Css (mg/L) [2]: 1.81 mg/L
- Css (uM) [2]: 3.42 µM
- CLhep [2]: 1.146 L/h
- Fub [2]: 0.072
- CLint [2]: 268607 µL/min
- Mean fu (plasma protein): 0.0396
- Clint.1.Med [3]: 0

Compound: CNS(=O)(=O)C(F)(F)C(F)(F)C(F)(F)C(F)(F)C(F)(F)C(F)(F)C(F)(F)C(F)(F)F
- Clint.1.Med [3]: 48.7

Compound: O=C(O)C(F)(F)OC(F)(F)C(F)(F)OC(F)(F)F
- CLint for HTTK [1]: 0
- in vitro CLint exp assay [1]: 0
- Css (mg/L) [2]: 77.85 mg/L
- Css (uM) [2]: 263.04 µM
- CLhep [2]: 0.000 L/h
- Fub [2]: 0.005636
- CLint [2]: 0 µL/min
- Mean fu (plasma protein): 0.0031
- Clint.1.Med [3]: 0

Compound: C[N+](C)(C)CCCNS(=O)(=O)C(F)(F)C(F)(F)C(F)(F)C(F)(F)C(F)(F)C(F)(F)C(F)(F)C(F)(F)F
- Clint.1.Med [3]: 0

Compound: O=S(=O)([O-])C(F)(F)C(F)(F)C(F)(F)C(F)(F)F.[K+]
- CLint for HTTK [1]: 0
- in vitro CLint exp assay [1]: 0
- Css (mg/L) [2]: 52.47 mg/L
- Css (uM) [2]: 174.92 µM
- CLhep [2]: 0.000 L/h
- Fub [2]: 0.008364
- CLint [2]: 0 µL/min
- Mean fu (plasma protein): 0.0046
- Clint.1.Med [3]: 0

- Unadj Clint [1]: 1.82
- Clint.1.Med [3]: 0
Compound: O=C(O)C=C(C(F)(F)F)C(F)(F)F [3,3-Bis(trifluoromethyl)-2-propenoic acid]

Compound: O=C(O)CCC(F)(F)C(F)(F)C(F)(F)F [3:3 Fluorotelomer carboxylic acid]
- Unadj Clint [1]: 0.00
- Clint.1.Med [3]: 0

Compound: O=C(O)C(F)(F)C(F)(F)C(F)F [4H-Perfluorobutanoic_acid]
- Clint.1.Med [3]: 0

Compound: N.O=C(O)C(F)(F)C(F)(F)C(F)(F)C(F)(F)C(F)(F)C(F)(F)C(F)(F)F [Ammonium_perfluorooctanoate]
- Clint.1.Med [3]: 10.8

Compound: CNS(=O)(=O)C(F)(F)C(F)(F)C(F)(F)C(F)(F)C(F)(F)C(F)(F)C(F)(F)C(F)(F)F [N-Methylperfluorooctanesulfonamide]
- Unadj Clint [1]: 33.23
- metabolic clearance call, experimental and Bayesian analyses in agreement ([3]; both analyses agreed): metabolized

Compound: O=C(Cl)C(F)(F)C(F)(F)C(F)(F)C(F)(F)C(F)(F)C(F)(F)C(F)(F)F [Pentadecafluorooctanoyl chloride]
- Unadj Clint [1]: 0.00
- Clint.1.Med [3]: 0

Compound: O=C(O)C(F)(F)C(F)(F)C(F)(F)OC(F)(F)F [Perfluoro(4-methoxybutanoic)_acid]
- Clint.1.Med [3]: 0

Compound: O=S(=O)(Cl)C(F)(F)C(F)(F)C(F)(F)C(F)(F)C(F)(F)C(F)(F)C(F)(F)C(F)(F)F [Perfluoro-1-octanesulfonyl_chloride]
- Clint.1.Med [3]: 0

Compound: O=C(O)C(F)(F)C(F)(F)OC(F)(F)F [Perfluoro-3-methoxypropanoic acid]
- Unadj Clint [1]: 0.00
- Clint.1.Med [3]: 0

Compound: O=C(O)C(F)(F)C(F)(F)C(F)(F)OC(F)(C(F)(F)F)C(F)(F)F [Perfluoro-4-isopropoxybutanoic_acid]
- Clint.1.Med [3]: 0

Compound: O=S(=O)(O)C(F)(F)C(F)(F)C(F)(F)C(F)(F)C(F)(F)C(F)(F)C(F)(F)F [Perfluoroheptanesulfonic_acid]
- Clint.1.Med [3]: 0

Compound: O=C(Cl)C(F)(F)C(F)(F)C(F)(F)C(F)(F)C(F)(F)C(F)(F)F [Perfluoroheptanoyl chloride]
- Unadj Clint [1]: 0.00
- Clint.1.Med [3]: 0

Compound: NS(=O)(=O)C(F)(F)C(F)(F)C(F)(F)C(F)(F)C(F)(F)C(F)(F)F [Perfluorohexanesulfonamide]
- Unadj Clint [1]: 0.00
- Clint.1.Med [3]: 0

Compound: O=S(=O)(O)C(F)(F)C(F)(F)C(F)(F)C(F)(F)C(F)(F)C(F)(F)F [Perfluorohexanesulfonic_acid]
- Clint.1.Med [3]: 0

Compound: O=C(O)C(F)(F)C(F)(F)C(F)(F)C(F)(F)C(F)(F)C(F)(F)C(F)(F)C(F)(F)F [Perfluorononanoic_acid]
- Clint.1.Med [3]: 10.4

Compound: O=S(=O)(O)C(F)(F)C(F)(F)C(F)(F)C(F)(F)C(F)(F)C(F)(F)C(F)(F)C(F)(F)F [Perfluorooctanesulfonate]
- Unadj Clint [1]: 0.00
- Clint.1.Med [3]: 0

Compound: O=C(O)C(F)(F)C(F)(F)C(F)(F)C(F)(F)C(F)(F)C(F)(F)C(F)(F)F [Perfluorooctanoic_acid]
- Clint.1.Med [3]: 0

Compound: O=C(O)C(F)(F)C(F)(F)C(F)(F)C(F)(F)F [Perfluoropentanoic_acid]
- Clint.1.Med [3]: 0

Compound: O=C(O)C(F)(F)C(F)(F)F [Perfluoropropanoic_acid]
- Clint.1.Med [3]: 0

Compound: O=C(O)C(F)(F)C(F)(F)C(F)(F)C(F)(F)C(F)(F)C(F)(F)C(F)(F)C(F)(F)C(F)(F)C(F)(F)C(F)(F)C(F)(F)C(F)(F)F [Perfluorotetradecanoic acid (PFTeDA)]
- Clint.1.Med [3]: 0

Compound: O=C(O)C(F)(F)C(F)(F)C(F)(F)C(F)(F)C(F)(F)C(F)(F)C(F)(F)C(F)(F)C(F)(F)C(F)(F)C(F)(F)C(F)(F)F [Perfluorotridecanoic_acid]
- Clint.1.Med [3]: 0

Compound: O=S(=O)([O-])C(F)(F)C(F)(F)C(F)(F)C(F)(F)C(F)(F)C(F)(F)F.[K+] [Potassium perfluorohexanesulfonate]
- Unadj Clint [1]: 0.00
- Clint.1.Med [3]: 0

Compound: O=S(=O)([O-])C(F)(F)C(F)(F)C(F)(F)C(F)(F)C(F)(F)C(F)(F)C(F)(F)C(F)(F)F.[K+] [Potassium_perfluorooctanesulfonate]
- Clint.1.Med [3]: 0

Compound: O=S(=O)([O-])C(F)(F)C(F)(F)C(F)(F)C(F)(F)C(F)(F)C(F)(F)C(F)(F)C(F)(F)C(F)(F)C(F)(F)F.[Na+] [Sodium perfluorodecanesulfonate (NaPFDS)]
- CLint for HTTK [1]: 0
- in vitro CLint exp assay [1]: 0.00
- Css (mg/L) [2]: 4.57 mg/L
- Css (uM) [2]: 7.62 µM
- CLhep [2]: 0.000 L/h
- Fub [2]: 0.096
- CLint [2]: 0 µL/min
- Mean fu (plasma protein): 0.0528

Compound: O=S(=O)([O-])C(F)(F)C(F)(F)C(F)(F)C(F)(F)C(F)(F)C(F)(F)C(F)(F)C(F)(F)C(F)(F)C(F)(F)F.[Na+] [Sodium_perfluorodecanesulfonate]
- Clint.1.Med [3]: 4.87
